The record followed here is US8637556B2, “Linked Myc-max small molecule inhibitors” (University of Pittsburgh—Of the Commonwealth System of …, priority 2009, dated 2014).

Test [1] relates to Daudi Burkitt lymphoma cells. As to the kind of experiment: Burkitt's lymphoma cell growth inhibition (MTT assay). The conditions noted are these: Homo sapiens. The test is classed as cell-based. How it is done:
These assays were performed as previously described using HL60 promyelocytic leukemia cells and Daudi Burkitt lymphoma cells, each of which expresses high levels of endogenous c-Myc (Wang, H. et al. Mol. Cancer Ther. 6, 2399-408 (2007)). As controls for non-specific effects of bivalent compounds, we utilized a c-Myc nulllizygous strain of rat fibroblasts (Mateyak, M. K., et al. Cell Growth & Differentiation 8, 1039-48 (1997)) expressing the c-Myc target genes MT-MC1 and HMGAIb, each of which restores a normal growth rate as well as the TGR1 fibroblast line from which the nullizygous line was derived (Wang, H. et al. Mol. Cancer Ther. 6, 2399-408 (2007); Mateyak, M. K., et al. Cell Growth & Differentiation 8, 1039-48 (1997); and Rothermund, K. et al. Cancer Research 65, 2097-107 (2005)). […] Cell quantification was performed on triplicate wells over the ensuing 4-5 days without changing the medium by measuring the absorbance at 490 nm using the MTT assay (Mosmann, T. Journal of Immunological Methods 65, 55-63 (1983)). IC50 values were estimated from linear regression of the inhibition data at the third day of each experiment.
We evaluated the efficacy of the linked compounds 11, 12, 13, 16, 17, 18 in inhibiting the c-Myc-Max interaction by measuring the binding of a target DNA sequence (E-Box) by the protein heterodimers in an electrophoretic mobility shift assay (EMSA). […] A fluorinated substitute of 14, 24, the choice of which was based upon the results of structure activity relationship studies described in Wang, H. et al. (Mol. Cancer Ther. 6, 2399-408 (2007)), was employed at this purpose (Muller, K., et al. Science 317, 1881-6 (2007) and Kirk, K. L. Current Topics in Medicinal Chemistry 6, 1447-56 (2006)).

In test [2] the target is T1, c-Myc-Max heterodimer binding to E-Box DNA (Homo sapiens, UniProt P01106).
T1 construct: 6xHis with TEV site (N, cleaved yes); made in house; host or cells: c-Myc: E. coli BL21DE3(pLysS); Max: E. coli M15(pRep4)
As to the kind of experiment: Electrophoretic mobility shift assay (EMSA) of c-Myc-Max DNA binding. The class given is biochemical. The following applies: c-Myc-Max dimer 1 μM, 10 nM E-Box DNA. How it is done:
FIG. 17. Inhibition of c-Myc-Max DNA binding measured by electrophoretic mobility shift assay (EMSA). a. Inhibition by bivalent compounds 11, 12, 13. b. Inhibition by bivalent compounds 16, 17, 18. c. Inhibition by monovalent compounds 10074-G5 (1) and 10058-F4 (2). Inhibitor concentrations are micromolar. The c-Myc-Max dimer concentration was 1 μM in a and b, 50 nM in c.
Reactions containing c-Myc353-437 and varying concentrations of each tested inhibitor in a buffer containing 1×PBS, 1 mM EDTA; 0.1% NP40; 5% Glycerol; 1 mM DTT; 0.4 mg/mL BSA were incubated for 30 minutes, followed by addition of pre-mixed p21 Max and a synthetic double-stranded oligonucleotide containing a consensus c-Myc-binding “E-Box” element (CACGTG). The final protein concentration was 1 μM for both c-Myc353-437 and p21 Max, 10 nM E-Box DNA. The binding reaction was then allowed to proceed for an additional 15 minutes before loading on an 8% running gel (80:1 poly acrylamide:bis-acrylamide). Control experiments with the monovalent parent inhibitors 1 and 2 were similarly performed using a lower (50 nM) concentration of each protein component. Gels were run at 20° C. in 0.5×TBE and scanned on a BioRad FX molecular imager. Data were analyzed with BioRad Quantity One software.
We evaluated the efficacy of the linked compounds 11, 12, 13, 16, 17, 18 in inhibiting the c-Myc-Max interaction by measuring the binding of a target DNA sequence (E-Box) by the protein heterodimers in an electrophoretic mobility shift assay (EMSA). […] Of these, the best was compound 16 (LINK N1), with an IC50 in the 0.5-1.0 μM in both of the above cell lines. In contrast, higher concentrations of the compounds were required to inhibit the growth of the non-transformed rat fibroblast line TGR1 or of TGR1-derived c-Myc null rat fibroblasts reconstituted with either of the c-Myc target genes HMGA1b or MT-MC1, which restore a normal growth rate. […] The lower, albeit promising, potency of the bivalent inhibitors in cell based assays compared to ones involving purified components, and the partial lack of correlation between the first and the latter, may reflect a generally poor cell permeability of these compounds, which are relatively bulky and display higher than optimal polar surface areas. The effects of the linker chain connectivity on the compounds conformation and shape may also affect their cell permeability in a different manner from what observed for their c-Myc binding affinity, resulting in the aforementioned incomplete correlation between their performance in cell based and purified components assays (FIG. 19). […]

For a further test, the target named is T2, c-Myc 400-439 (Homo sapiens, UniProt P01106).
T2 construct: its truncated version c-Myc390-439 were produced from the c-Myc/pET SKB3 construct; 6xHis with TEV site (N, cleaved yes); made in house; host or cells: E. coli BL21DE3(pLysS)
Description: Fluorescence polarization titration, truncated c-Myc segment. The following applies: Table 2; segment with binding site of 2; read-out: Binding affinity to c-Myc 400-439.

The mark [3] stands for this setting: Table 3, MTT, third day, read-out: Growth inhibition BL.

Where two headings read alike, the source gives them in different places.

T1 sequence (P01106 368-452, one chain of several): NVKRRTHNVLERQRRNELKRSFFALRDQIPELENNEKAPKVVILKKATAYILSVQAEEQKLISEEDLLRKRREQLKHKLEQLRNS
T2 sequence (P01106 405-454): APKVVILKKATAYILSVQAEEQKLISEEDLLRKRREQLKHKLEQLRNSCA

As to `CCc1ccc(/C=C2\SC(=O)N(CCCCCCNC(=O)c3ccccc3Nc3ccc([N+](=O)[O-])c4nonc34)C2=O)cc1` [compound 16, N-{6-[(5Z)-5-[(4-ethylphenyl)methylidene]-2,4-dioxo-1,3-thiazolidin-3-yl]hexyl}-2-[(7-nitro-2,1,3-benzoxadiazol-4-yl)amino]benzamide amine], the IC50 in test [1] (BL cells, read-out: IC50) fell in the range of 500 to 1000 nM; in test [1] (setting [3]), 700 to 900 nM. Besides, the “Disruption of c-Myc-Max DNA (E-Box) binding” value (from here on “Disruption of c-Myc-Max DNA”) in test [2] is “Strong disruption of DNA binding”.
In the case of `CCc1ccc(C=C2SC(=O)N(CCCCCCNC(=O)c3cccc(Nc4ccc([N+](=O)[O-])c5nonc45)c3)C2=O)cc1` [compound 17], in test [1] (setting [3]), the IC50 is more than 10000 nM. In test [2], the “Disruption of c-Myc-Max DNA” value is given as “Strong disruption of DNA binding”.
Take `O=C1NC(=S)SC1=Cc1ccc(C(=O)NCCCCCNC(=O)c2ccc(Nc3ccc([N+](=O)[O-])c4nonc34)cc2)cc1` [compound 13]: the Kd at c-Myc 400-439 worked out at 53 ± 16 nM. In addition, the IC50 in test [1] (setting [3]) was 5000 to 10000 nM. Further, in test [2], the “Disruption of c-Myc-Max DNA” value is recorded as “Strong disruption of DNA binding”.
Consider `O=C1NC(=S)S/C1=C\c1ccc(C(=O)NCCCCCNC(=O)c2cccc(Nc3ccc([N+](=O)[O-])c4nonc34)c2)cc1` [compound 12, N-[5-({3-[(7-nitro-2,1,3-benzoxadiazol-4-yl)amino]phenyl}formamido)pentyl]-4-{[(5Z)-4-oxo-2-sulfanylidene-1,3-thiazolidin-5-ylidene]methyl}benzamide], for which the IC50 in test [1] (setting [3]) was 20000 to 35000 nM. Also, the “Disruption of c-Myc-Max DNA” value in test [2] is given as “Strong disruption of DNA binding”.
